What is called melting point is the temperature, or range, at which the solid turns liquid.

The target in data set [1] is ionotropic quisqualate (AMPA) receptors. Kind of data set: In vitro inhibition of 3H-AMPA binding. The note with it: 5 nM 3H-AMPA, rat cerebral cortex membranes, 30 min at 2° C.; read-out: IC50 (concentration of the test substance which inhibits the specific binding of 3H-AMPA by 50%). The text has this: L-glutamate (GLU) is the major excitatory neurotransmitter in the mammalian central nervous system. From electrophysiological- and binding studies, there appear to be at least three subtypes of GLU receptors, tentatively named N-methyl-D-aspartate (NMDA)-, quisqualate- and kainate receptors. GLU receptor subtypes sensitive to quisqualate and kainate as a group are often referred to as non-NMDA receptors. Receptor binding studies using the labelled agonists ^3H-AMPA (α-amino-3-hydroxy-5-methyl-4-isoxazolepropionic acid) (for quisqualate receptors) and ^3H-kainate (for kainate receptors) have shown different antagonist selectivities and regional distribution. AMPA has been known for several years to be a potent and selective agonist at the traditionally named quisqualate receptors. Activation of quisqualate receptors by AMPA is associated with Na^+ influx and K^+ efflux leading to depolarization.
The non-NMDA receptors have recently been reclassified to include the quisqualate activated metabotropic receptor type, linked to the inositol triphosphate and diacylglycerate metabolism. […] Selective activation of the metabotropic type has been claimed for trans-ACPD. Recently, the potent and competitive non-NMDA receptor antagonists CNQX and NBQX have been described, and CNQX have been reported not to block the effect of quisqualate at the metabotropic receptor subtype. ^3H-AMPA is a selective radioligand for labelling the ionotropic quisqualate (AMPA) receptors.
Preparations are performed at 0–4° C. unless otherwise indicated. Cerebral cortex from male Wistar rats (150–200 g) is homogenized for 5–10 sec in 20 ml Tris-HCl (30 mM, pH 7.4) using an Ultra-Turrax homogenizer. The suspension is centrifuged at 27,000×g for 15 min and the pellet is washed three times with buffer (centrifuged at 27,000×g for 10 min). The washed pellet is homogenized in 20 ml of buffer and incubated on a water bath (37° C.) for 30 min to remove endogenous glutamate and then centrifuged for 10 min at 27,000×g. The pellet is then homogenized in buffer and centrifuged at for 10 min at 27,000×g. The final pellet is resuspended in 30 ml buffer and the preparation is frozen and stored at −20° C.
The membrane preparation is thawed and centrifuged at 2° C. for 10 min at 27,000×g for 10 min. The pellet is washed twice with 20 ml 30 mM Tris-HCl containing 2.5 mM CaCl2, pH 7.4 using an Ultra-Turrax homogenizer and centrifuged for 10 min at 27,000×g. The final pellet is resuspended in 30 mM Tris-HCl containing 2.5 mM CaCl2 and 100 mM KSCN, pH 7.4 (100 ml per g of original tissue) and used for binding assays. Aliquots of 0.5 (0.2) ml are added to 25 (20) μl of test solution and 25(20) μl of ^3H-AMPA (5 nM, final concentration), mixed and incubated for 30 min at 2° C. Non-specific binding is determined using L-glutamate (0.6 mM, final concentration). After incubation the 550 μl samples are added 5 ml of ice-cold buffer and poured directly onto Whatman GF/C glass fibre filters under suction and immediately washed with 5 ml of ice-cold buffer. The 240 μl samples are filtered over glass fibre filter using a Skatron cell harvrester. The filters are washed with 3 ml ice-cold buffer. The amount of radioactivity on the filters is determined by conventional liquid scintillation counting. Specific binding is total binding minus non-specific binding.
The test value will be given as the IC50 (the concentration (μM) of the test substance which inhibits the specific binding of ^3H-AMPA by 50%)

Data set [2] concerns AMPA receptors. The data set is described as follows: AMPA evoked single neuron spike activity in rat hippocampus (iontophoretic application of AMPA), in vivo. The note with it: 10 mg kg^−1 i.v., rat hippocampus. The text has this:
Evaluation of the in vivo effects of positive AMPA modulators (PAMs) on the AMPA evoked spike activity in rat hippocampus. Hippocampal single neuron spike activity is strongly influenced by excitatory input, and iontophoretic application of AMPA induces spike activity in vivo in a dose-dependent manner ([…] et al. 1998). […] PAMs potentate AMPA receptor activation in vitro, and if this mechanism also operates in vivo, the i.v. injection of an PAM should enhance AMPA evoked spike activity. Thus, the aim of this study was to test the in vivo effect of a group of in vitro active PAMs. This have been done by studying their ability to enhances AMPA evoked spike activity after i.v. administration. Experiments were performed on male Wistar rats (M & B, Denmark) weighing 280-380 g, housed in two per cage with free access to food and water. […] Additional anaesthetic was given i.v. if the rat responded to a pinch of the back foot. The trachea was cannulated and the rats were placed in a stereotaxic frame and ventilated by a rodent ventilator (Ugo Basile, Comerio-Varese, Italy). Core body temperature was maintained at 37.5° C. by a DC heating pad. The left and dorsal part of the parietal bone was removed by craniotomy and the dura was withdrawn exposing the pia mater and underlying brain, covered with 0.9% NaCl. AMPA (Sigma, USA) was dissolved at 10 mM in 0.2 M NaCl. NMDA (Sigma, USA) was dissolved at 100 mM in 100 mM NaCl. Both solutions were adjusted to pH 7.5-8.0 with NaOH. COMPOUND 61 was dissolved in 200 mM CH3SO3^- Na^+ at a contration of 10 mM for iontophoretic application ([…]) and in isotonic glucose (278 mM) for i.v. administration. Cyclothiazide, COMPOUND 63, COMPOUND 56, COMPOUND 115 and COMPOUND 114 were all dissolved at in 5% chremophore solution at a concentration of 5 mg ml^-1. Evoked neuronal spike activity was analyzed on-line by a computer, saving single spikes and time of event. Neuronal spike activity (number of action potentials s^-1) was monitored on a pulse rate histogram together with indicators for AMPA, COMPOUND 61 and vehicle application. Extracellular recordings of single hippocampal neuron spikes were made with five-barrel glass microelectrodes (5B120F-6, World Precision Instruments Inc., Sarasota, Fla., USA) with a tip diameter of 10-12 μm. The individual barrels were filled with 5 M NaCl (recording), 400 mM NaCl (current balancing), 10 mM COMPOUND 61 in 200 mM CH3SO3^- Na^+ (pH 4.7), 200 mM CH3SO3^- Na^+ (pH 4.7, Vehicle), and the last barrel was filled with the AMPA. Experiments were performed on hippocampal neurons (A=5.5-6.5 mm, L=1.5-2.0 mm, H=2.0-3.0 mm, according to Paxinos & Watson, 1986). Neuronal spike activity was evoked by iontophoretic application of AMPA for periods of 10 to 15 s with 1.5 min intervals. Single neuron spike activity was amplified 5000 times with a bandwidth of 0.3 and 3 kHz (CyberAmp 320 with a Al 402 x50 smartprobe, Axon Instruments, California, USA). On-line and off-line analyses were performed by the Spike2 program with a 1401 plus interface (Cambridge Electronic Design Limited, England). The computer program also recorded mean arterial blood pressure and monitored and controlled iontophoretic application. AMPA was ejected into hippocampus in regular cycles of 100-105 s. […] Recording of neuronal spike activity was continued for at least 45 min after intravenous injection. The PAM reactivity was tested by microiontophoretic application of COMPOUND 61 (20 nA, FIG.).

Take `CCN(CC)S(=O)(=O)c1ccc2c(c1)S(=O)(=O)NC(C1CCCCC1)N2` (centres unmarked) [Compound 48, 3-Cyclohexyl-7-(N,N-diethylamino)sulfonyl-1,2,3,4-tetrahydro-1,2,4-benzothiadiazine-1,1-dioxide]: the IC50 in data set [1] was 4.4 µM.
On to `NS(=O)(=O)c1ccc2c(c1)S(=O)(=O)NC(C1CCCCC1)N2` (centres unmarked) [Compound 44, 3-Cyclohexyl-7-sulfamoyl-1,2,3,4-tetrahydro-1,2,4-benzothiadiazine-1,1-dioxide], for which the IC50 in data set [1] stood at 3.5 µM.
The molecule `O=C1NC(c2ccccc2)Oc2ccccc21` (centres unmarked) [Compound 4, 2-Phenyl-3,4-dihydro-1,3-benzoxazine-4-one] displayed a melting point of 157 to 160 °C.
In turn, `O=S1(=O)NC(C2CCCCC2)Nc2ccc3c(c21)OCCO3` (centres unmarked) [Compound 122, 3-Cyclohexyl-7,8-ethylenedioxy-1,2,3,4-tetrahydro-1,2,4-benzothiadiazine-1,1-dioxide] had a melting point of 268 to 270 °C.
With `O=S1(=O)NC(C2CC3C=CC2C3)Nc2ccc(S(=O)(=O)N3CCCCC3)cc21` (centres unmarked) [Compound 57, 3-Bicyclo[2.2.1]hept-5′-en-2′-yl-7-piperidinosulfonyl-1,2,3,4-tetrahydro-1,2,4-benzothiadiazine-1,1-dioxide], the IC50 in data set [1] amounted to 26 µM.
`O=[N+]([O-])c1ccc2c(c1)S(=O)(=O)NC(C1CCCCC1)N2` (centres unmarked) [Compound 40, 3-Cyclohexyl-7-nitro-1,2,3,4-tetrahydro-1,2,4-benzothiadiazine-1,1-dioxide] gave a melting point of 209 to 211 °C.
For the molecule `O=S1(=O)NC(C2CCCCC2)Nc2ccc(S(=O)(=O)N3CC=CCC3)cc21` (centres unmarked) [Compound 58, 3-Cyclohexyl-7-(1′,2′,3′,6′-tetrahydropiperidino)sulfonyl-1,2,3,4-tetrahydro-1,2,4-benzothiadiazine-1,1-dioxide], in data set [1], the IC50 was 3.4 µM.
Molecule `NS(=O)(=O)c1cc(Br)c2c(c1)S(=O)(=O)NC(C1CCCCC1)N2` (centres unmarked) [Compound 101, 5-Bromo-3-cyclohexyl-7-sulfamoyl-1,2,3,4-tetrahydro-1,2,4-benzothiadiazine-1,1-dioxide] had a melting point of 254 to 258 °C.
The same measure, in the same setting: with `CN1C(C2CCCCC2)Nc2ccc(S(=O)(=O)N3CCOCC3)cc2S1(=O)=O` (centres unmarked) [Compound 85, 3-Cyclohexyl-2-methyl-7-morpholinosulfonyl-1,2,3,4-tetrahydro-1,2,4-benzothiadiazine-1,1-dioxide] the figure was 243 to 245 °C; with `O=S1(=O)NC(C2CCCCC2)Nc2cc3c(cc21)OCCO3` (centres unmarked) [Compound 118, 3-cyclohexyl-6,7-ethylenedioxy-1,2,3,4-tetrahydro-1,2,4-benzothiadiazine-1,1-dioxide], 196 to 200 °C; with `CC(=O)Nc1ccccc1-c1ccc2c(c1)S(=O)(=O)NC(C1CCCCC1)N2` (centres unmarked) [Compound 19, 3-Cyclohexyl-7-(2′-acetamidophenyl)-1,2,3,4-tetrahydro-1,2,4-benzothiadiazine-1,1-dioxide], 245 to 249 °C.
Same read-out and setting: the value for `CCC1(C)NC(=O)c2ccccc2O1` (centres unmarked) [Compound 8, 2-Ethyl-2-methyl-3,4-dihydro-1,3-benzoxazine-4-one] was 76 to 78 °C; that for `CC1NC(=O)c2ccccc2O1` (centres unmarked) [Compound 3, 2-Methyl-3,4-dihydro-1,3-benzoxazine-4-one] was 124 to 126 °C; that for `CN1c2ccc(S(=O)(=O)N3CCOCC3)cc2S(=O)(=O)NC1C1CCCCC1` (centres unmarked) [Compound 86, 3-Cyclohexyl-4-methyl-7-morpholinosulfonyl-1,2,3,4-tetrahydro-1,2,4-benzothiadiazine-1,1-dioxide] was 207 to 210 °C.
On to `O=S1(=O)NC(C2CCCCC2)Nc2ccc(-c3cccc(O)c3)cc21` (centres unmarked) [Compound 27, 3-Cyclohexyl-7-(3′-hydroxyphenyl)-1,2,3,4-tetrahydro-1,2,4-benzothiadiazine-1,1-dioxide], for which the melting point fell in the range of 238 to 246 °C.
Same read-out and setting: with `COc1cc(C(F)(F)F)ccc1-c1ccc2c(c1)S(=O)(=O)NC(C1CCCCC1)N2` (centres unmarked) [Compound 22, 3-Cyclohexyl-7-(2′-methoxy-4′-trifluoromethylphenyl)-1,2,3,4-tetrahydro-1,2,4-benzothiadiazine-1,1-dioxide] the figure was 255 to 257 °C; with `O=S1(=O)NC(C2CCCC2)Nc2ccc(S(=O)(=O)N3CCCCC3)cc21` (centres unmarked) [Compound 55, 3-Cyclopentyl-7-piperidinosulfonyl-1,2,3,4-tetrahydro-1,2,4-benzothiadiazine-1,1-dioxide], 258 to 260 °C.
On the same count and under the same terms, the value for `CN(C)S(=O)(=O)c1ccccc1-c1ccc2c(c1)S(=O)(=O)NC(C1CCCCC1)N2` (centres unmarked) [Compound 24, 3-Cyclohexyl-7-(2′-(N,N-dimethylsulfamoyl)phenyl)-1,2,3,4-tetrahydro-1,2,4-benzothiadiazine-1,1-dioxide] was 290 to 300 °C.
Take `NS(=O)(=O)c1cc2c(cc1Cl)NC(C1CC3C=CC1C3)NS2(=O)=O` (centres unmarked) [cyclothiazide, reference compound]: in data set [2], the “AMPA evoked spike activity” value is recorded as “did not enhance”.
As for `CS(=O)(=O)Nc1ccc2c(c1)S(=O)(=O)NC(C1CCCCC1)N2` (centres unmarked) [Compound 39, 3-Cyclohexyl-7-methylsulfonylamino-1,2,3,4-tetrahydro-1,2,4-benzothiadiazine-1,1-dioxide], the melting point lay within 255 to 258 °C.

Values taken from patent US7235548B2, “Compounds and their use as positive AMPA receptor modulators” (NeuroSearch A/S, priority 1998, dated 2007).
